{"source": "paper PMC7316388", "about": "(European journal of cell biology, 2010)", "molecular_target": "CREB (Mus musculus, UniProt Q01147)", "sequence (Q01147 whole entry)": "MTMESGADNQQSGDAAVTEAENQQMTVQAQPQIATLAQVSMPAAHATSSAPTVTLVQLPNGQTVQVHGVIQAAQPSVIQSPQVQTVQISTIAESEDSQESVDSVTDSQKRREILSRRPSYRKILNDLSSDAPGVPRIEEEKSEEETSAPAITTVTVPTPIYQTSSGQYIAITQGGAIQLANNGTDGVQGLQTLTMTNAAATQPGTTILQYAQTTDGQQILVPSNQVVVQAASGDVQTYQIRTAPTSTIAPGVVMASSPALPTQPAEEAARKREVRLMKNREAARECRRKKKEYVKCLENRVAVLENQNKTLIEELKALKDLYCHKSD", "test": "chromatin immunoprecipitation, CREB binding to c-fos promoter", "type": "cell-based", "details": "100 μM compound with lipofectamine, 24 h, NIH3T3 cells", "data": [{"smiles": "O=S(=O)(O)c1cc[c]([Sb](=[O])([OH])[OH])cc1", "note": "[NSC13746]", "values": [{"measurement": "% reduction in CREB DNA binding at 100 μM", "value": 30, "unit": "%"}]}]}
